Values of other authors, collected in patent US20230020217A1, “HEPES-CONTAINING MEDIUM” (AJINOMOTO CO., INC., priority 2020, published 2023).

Conditions: when exposed to light for a long time (Zigler et al. 1985)

For O=S(=O)(O)CCN1CCN(CCO)CC1 [HEPES, 4-(2-hydroxyethyl)-1-piperazineethanesulfonic acid], the toxicity is given as “toxicity derived from hydrogen peroxide”.
